Test results taken from patent US20150011566A1, “N-PHENYLPIPERAZINE DERIVATIVES THAT ARE ANTAGONISTS OF A1A, A1D ADRENOCEPTORS AND 5-HT1A RECEPTORS FOR THE TREATMENT OF BENIGN PROSTATE HYPERPLASIA, PHARMACEUTICAL COMPOSITIONS CONTAINING THE SAME” (UNIVERSIDADE FEDERAL DO RIO DE JANEIRO-UFRJ, priority 2012, published 2015).
Structures can show the parent of a compound that is named as a salt. Marks after values point to notes of the source that are not given here.

Assays:
prostate cells = conditions: DIZEYI et al. Prostate 59 (3): 328-336, 2004; cited from earlier work
α1D receptors = biological target: T1, α1D receptors (Homo sapiens, UniProt P25100); test: Cell proliferation in vitro, DU-145 cells stimulated with phenylephrine (MTT); type: cell-based; conditions: 48 h
T1 construct: endogenous in cells; host or cells: DU-145
T1 sequence (P25100 1-572): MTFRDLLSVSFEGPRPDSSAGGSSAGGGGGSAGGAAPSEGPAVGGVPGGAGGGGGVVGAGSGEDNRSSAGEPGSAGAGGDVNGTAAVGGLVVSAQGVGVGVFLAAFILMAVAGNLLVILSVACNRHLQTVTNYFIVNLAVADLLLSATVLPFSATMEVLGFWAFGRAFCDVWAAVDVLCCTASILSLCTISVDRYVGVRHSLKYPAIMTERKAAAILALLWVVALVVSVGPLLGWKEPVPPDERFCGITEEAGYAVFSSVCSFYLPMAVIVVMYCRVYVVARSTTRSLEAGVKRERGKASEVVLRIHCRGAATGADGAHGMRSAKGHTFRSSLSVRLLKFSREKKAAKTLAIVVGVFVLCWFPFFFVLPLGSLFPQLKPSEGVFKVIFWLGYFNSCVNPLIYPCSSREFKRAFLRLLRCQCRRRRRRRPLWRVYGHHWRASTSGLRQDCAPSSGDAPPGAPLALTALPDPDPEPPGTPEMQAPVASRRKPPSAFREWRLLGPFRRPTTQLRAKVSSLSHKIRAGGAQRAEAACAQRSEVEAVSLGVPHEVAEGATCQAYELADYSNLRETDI
Description: (§1) Human prostate cancer cells (DU-145) were cultured in medium (RPMI 1640) until confluence. Then the cells were dissociated, plated (5×10^3 cells/well) and maintained in medium free of fetal bovine serum for 24 hours. […] Cell proliferation was assessed by using the MTT technique (MOSMANN, T. Immunol Methods. 16; 65 (1-2):55-63, 1983).

5-HT1A receptors [1] = biological target: T2, 5-HT1A receptors (Homo sapiens, UniProt P08908); test: Cell proliferation in vitro, DU-145 cells stimulated with 5-HT (MTT); type: cell-based; conditions: 48 h
T2 construct: endogenous in cells; host or cells: DU-145
T2 sequence (P08908 1-422): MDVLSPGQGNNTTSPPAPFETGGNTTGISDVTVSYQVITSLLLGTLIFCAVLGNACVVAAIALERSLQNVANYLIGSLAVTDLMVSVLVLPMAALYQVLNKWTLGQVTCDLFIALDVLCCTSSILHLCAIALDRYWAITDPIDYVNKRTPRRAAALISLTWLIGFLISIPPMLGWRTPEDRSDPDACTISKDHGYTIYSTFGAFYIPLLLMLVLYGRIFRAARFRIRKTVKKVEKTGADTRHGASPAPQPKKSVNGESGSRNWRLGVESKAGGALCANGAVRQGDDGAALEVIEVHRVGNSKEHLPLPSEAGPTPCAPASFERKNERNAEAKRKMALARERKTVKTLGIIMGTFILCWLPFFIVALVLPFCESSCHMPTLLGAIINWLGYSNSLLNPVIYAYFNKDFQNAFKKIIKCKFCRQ
Description: as §1

5-HT1A receptors [2] = biological target: T3, 5-HT1A receptors (Rattus norvegicus, UniProt P19327); test: Binding of [3H]p-MPPF with GTP to 5-HT1A receptors; intrinsic activity (Ki low/Ki high); conditions: Table 13; from Ki low/Ki high
T3 construct: Intrinsic Activity at Native 5-HT1A Receptors; from tissue; host or cells: rat hippocampus membranes
T3 sequence (P19327 1-422): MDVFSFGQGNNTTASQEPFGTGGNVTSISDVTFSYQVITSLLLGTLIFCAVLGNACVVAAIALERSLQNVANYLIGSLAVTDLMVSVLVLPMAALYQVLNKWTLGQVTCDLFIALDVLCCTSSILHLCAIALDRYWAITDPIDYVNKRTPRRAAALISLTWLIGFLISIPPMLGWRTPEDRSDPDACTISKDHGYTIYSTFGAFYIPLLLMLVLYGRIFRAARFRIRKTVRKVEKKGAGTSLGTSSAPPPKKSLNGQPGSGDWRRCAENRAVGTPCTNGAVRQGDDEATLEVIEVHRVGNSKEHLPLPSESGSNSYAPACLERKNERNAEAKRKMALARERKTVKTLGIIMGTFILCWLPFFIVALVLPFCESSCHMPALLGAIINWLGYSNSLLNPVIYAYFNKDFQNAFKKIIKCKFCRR
Description: Membrane preparations of rat hippocampus according to previously described by HALL et al (1985) and PEROUTKA (1986) were performed. The homogenization and centrifugation steps were performed identically to that described above for receptors α2A and 5-HT2A receptors.
The binding assays for the 5-HT1A receptors were performed as described previously in the literature and previously standardized in the laboratory through saturation experiments. […] (solvent for dilution of LDT's) for the determination of total binding, or 50 μL non-radioative serotonin at 10 μM to determine the non-specific binding (final volume of 500 μL). Assays were performed in triplicate. […] Assays were performed in triplicate.
After the incubation period, the reaction was stopped by adding 4 ml of ice-cold solution containing 5 mM Tris (pH 7.4), followed by vacuum filtration on glass fiber filter (GMF 3, Filtrak®) previously soaked with solution 0.5% polyethylenoimine. The filters were washed three times with 4 mL of ice-cold solution containing 5 mM Tris (pH 7.4) under vacuum to remove all free radioligand. Then the filters were dried and placed in vials containing 5 ml scintillation fluid (composition: 4% PPO, 0.1% POPOP w/p in toluene). The radioactivity retained on the filters was then determined in a liquid scintillation counter (Packard Tri-Carb 1600 TR). […] For these receptors were also determined the […] and Ki parameters.
The GTP presence displaces the GPCR to a state of low affinity (Lahti et al, 1992). The intrinsic activity of a substance can be estimated using GPCR agonist or antagonist radioligand appropriate to define the affinity of the substance in the state of high and low affinity receptor, respectively.

α1D adrenoceptors = biological target: T4, α1D adrenoceptors (Rattus norvegicus, UniProt P23944); test: Phenylephrine-induced contraction inhibition in rat aorta (isometric contraction, Schild KB); type: cell-based; conditions: ratio of EC50 in presence and absence of test substance, 10 nM
T4 construct: the rat thoracic aorta corresponds to a tissue expressing mainly α1D-adrenoceptors; from tissue; host or cells: rat thoracic aorta rings
T4 sequence (P23944 1-561): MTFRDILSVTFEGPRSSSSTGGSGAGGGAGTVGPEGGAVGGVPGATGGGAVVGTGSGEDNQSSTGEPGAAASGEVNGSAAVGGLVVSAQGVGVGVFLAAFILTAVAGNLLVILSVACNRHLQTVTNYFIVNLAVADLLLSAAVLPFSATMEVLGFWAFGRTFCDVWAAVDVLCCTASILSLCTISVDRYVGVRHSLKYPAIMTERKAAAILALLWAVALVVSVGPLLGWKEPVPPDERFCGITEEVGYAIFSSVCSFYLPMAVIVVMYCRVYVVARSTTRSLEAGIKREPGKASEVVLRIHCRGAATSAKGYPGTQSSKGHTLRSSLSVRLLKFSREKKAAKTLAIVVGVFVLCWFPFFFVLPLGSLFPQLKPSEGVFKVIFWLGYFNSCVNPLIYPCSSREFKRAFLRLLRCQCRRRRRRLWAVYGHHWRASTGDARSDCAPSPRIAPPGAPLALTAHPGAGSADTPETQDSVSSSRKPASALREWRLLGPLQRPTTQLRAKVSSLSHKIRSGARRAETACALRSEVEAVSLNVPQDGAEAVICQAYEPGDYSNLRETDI
Description: Isometric contraction assays were performed using Male Wistar rats, aged 2.5-3 months euthanized as described above. The thoracic aorta (tissue enriched in functional α1D adrenergic receptors) was removed, free from adjacent connective and adipose tissues cut in 3 mm segments. […] The aort segments were then subjected to a preload of 20 mN per 60 minutes. After recovery of tissues maintained for 1 hour at rest, it was performed a contraction induced by phenylephrine (PE) 1 μM (α1 adrenergic receptors selective agonist). In this plateau contraction, in order to promote endothelium-dependent relaxation resulting from the activation of the enzyme endothelial nitric oxide synthase (eNOS) and subsequent release of nitric oxide (NO), acetylcholine 1 μM was added. Rings that relaxed at least 80% were considered to have intact endothelium, were used.
Then the preparation was washed and allowed to stand for 1 hour in order to recover the tissue. Then it was performed cumulative curves to phenylephrine (10^−9 to 10^−5 M) in the presence of propranolol 1 μM (β-adrenoceptor blocker receptors) before and after incubation for 1 hour of the LDT's at 10 or 50 nM. In parallel, a temporal control was performed to rule out any artifacts on the measured contraction, where was added only the vehicle (ultrapure water Milli Q®) instead of the substance to be tested. Strictly following the same protocol as the other tanks wherein it was added the LDT's.
The data were scanned in MacLab 8S system connected to the isometric tension transducer Grass FT-03, which recorded the voltage variation in milinewtons (mN) generated throughout the analysis. The digitized data were then analyzed by Chart 3.4/s software program (MacLab, Inc., USA). In the pharmacological screening process, the initial concentration of the used LDT's was 50 nM, which is considered as cut concentration, i.e., substances that have no effect at this concentration would not investigated in this test. […] The ratio of the EC50 value in these two conditions (with and without LDT) matches the third parameter, called “concentration ratio” (or RC).
log(CR−1)=log [B]−log KB (Equation 1)
Where CR=concentration ratio (EC′50/EC50); [B]=‘B’ antagonist concentration; KB=equilibrium dissociation constant of the antagonist ‘B’.
With this in view, the functional tests of contraction in isolated organ model were performed using these tissues. […] Similarly, targeting to rule out any artifacts on the measured contraction, a time control was performed where only the vehicle was added (ultrapure Mili Q® water) in place of the substance to be tested, strictly following the same protocol as the other vats were added to the LDT's (FIG. 1).

α2A receptors = biological target: T5, α2A receptors (Rattus norvegicus, UniProt P22909); test: Binding of [3H]RX821002 to α2A receptors (rat cortex membranes); conditions: saturation assay
T5 construct: Membrane preparations of rat cortex as described previously in the literature were performed; from tissue; host or cells: rat cortex membranes
T5 sequence (P22909 1-465): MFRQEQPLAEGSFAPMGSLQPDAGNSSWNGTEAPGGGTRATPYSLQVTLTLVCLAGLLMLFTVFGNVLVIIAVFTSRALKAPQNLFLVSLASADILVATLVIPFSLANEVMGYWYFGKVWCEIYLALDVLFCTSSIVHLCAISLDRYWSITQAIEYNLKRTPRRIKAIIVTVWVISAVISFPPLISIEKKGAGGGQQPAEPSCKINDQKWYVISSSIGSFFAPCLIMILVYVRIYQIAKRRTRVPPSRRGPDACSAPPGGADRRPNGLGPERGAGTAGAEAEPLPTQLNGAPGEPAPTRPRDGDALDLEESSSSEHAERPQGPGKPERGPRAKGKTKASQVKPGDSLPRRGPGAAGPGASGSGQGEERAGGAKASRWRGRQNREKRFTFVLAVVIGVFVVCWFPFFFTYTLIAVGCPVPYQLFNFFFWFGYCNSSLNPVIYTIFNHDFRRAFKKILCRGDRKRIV

For `CCOc1ccccc1OCCN[C@H](C)Cc1ccc(OC)c(S(N)(=O)=O)c1` [tamsulosin], the “inhibition of cell proliferation” value (prostate cells) is given as “does not inhibit cell proliferation”.

In the case of `CNC[C@H](O)c1cccc(O)c1` [Phenylephrine, (R)-(−)-phenylephrine hydrochloride, reference compound], the “Proliferation percentage in relation to basel (100%), α1D” value (α1D receptors; DU-145, stimulus alone, phenylephrine 3 μM) is reported as 138.8 ± 2.6%.

For `Cl.NCCc1c[nH]c2ccc(O)cc12` [5-HT, 5-hydroxytryptamine hydrochloride], the “Proliferation percentage in relation to basel (100%), 5-HT1A” value (5-HT1A receptors [1]; DU-145, stimulus alone, 5-HT 1 μM) was 137.1 ± 5.2% and the pharmacological classification (5-HT1A receptors [2]) was “full antagonist”.

In the case of `COc1ccccc1N1CCN(CCN(C(=O)c2ccc(F)cc2)c2ccccn2)CC1` [p-MPPF, reference compound], the “Proliferation percentage in relation to basel (100%) in the presence of LDT's, 5HT1A” value (5-HT1A receptors [1]; DU-145, 5-HT 1 μM + test substance 50 nM) is reported as 88.9 ± 11.5^b %.

For `COc1ccccc1N1CCN(CCN2C(=O)CC3(CCCC3)CC2=O)CC1` [BMY7378, reference compound], the “CR ± EPM” value (α1D adrenoceptors) was 4.4 ± 0.8 and the “Proliferation percentage in relation to basel (100%) in the presence of LDT's, α1D” value (α1D receptors; DU-145, phenylephrine 3 μM + test substance 50 nM) was 90.98 ± 11.7^a %.

`COC1(C2=NCCN2)COc2ccccc2O1` (centres unmarked) [[3H] RX821002] showed a Kd (α2A receptors) of 2.05 ± 0.28 nM.
